Data taken from US7915239B2, “Process for treating lameness administration of a bisphosphonic acid derivative” (Ceva Sante Animale, priority 1998, dated 2011).

What was measured:
Type in all cases: in vivo
[1] = system: lameness during bone spavin; test: Clinical study in horses with lameness during bone spavin (osteoarthrosis of the distal stage of the tarsus); details: for percentage of animals in category Average / percentage of animals in category Favourable / percentage of animals in category Mediocre / percentage of animals in category Poor / percentage of animals in category Very favourable: procedure as Example 1
Description: The study was carried out on 24 horses, the diagnosis of the navicular disease causing lameness being based on the following criteria: • local signs in the palmar region: heat, swelling, pain • functional signs of limping graded on a scale from 0 (no sign of limping) to 4 (trouble in bearing weight when at rest and/or in motion and difficulty in moving around) • a functional test of locomotion after flexing the palmar region, also assessed on a scale from 0 (locomotion not changed by flexure) to 4 (start of suppression of bearing weight) • a radiological examination to assess radiological signs in the palmar region qualitatively.
All the animals received, as a single treatment, disodium tiludronate in the form of an injectable solution administered intravenously at a dose of 0.1 mg/kg, at a weekly administration rate for 6 to 10 weeks. The first day of treatment corresponds to D0.
To assess the effects of the treatment, the animals were reviewed 1 month after D0 (M1), 2 months after D0 (M2) and 6 months after D0 (M6). The effects of the treatment were assessed with regard to: • the local signs, the functional signs and the test of locomotion after flexure as defined during inclusion of the animal into the test • a radiological examination to assess the change in the radiological signs • an assessment of the resumption of the animal's sporting activity.
A clinical study was carried out in order to evaluate the effects of a treatment with disodium tiludronate on horses which develop lameness during bone spavin (which is osteoarthrosis of the distal stage of the tarsus).
The test procedure and the clinical monitoring of the animals were the same as those described in Example 1, except that the local, functional and radiological signs were assessed in the region of the hock.
5 horses were included in this test.
The results obtained were as follows (expressed as a percentage of animals present in each category): […]

[2] = system: lameness associated with bone lesions during osteochondrosis; test: Clinical study in horses with lameness associated with sub-chondral cysts during osteochondrosis; details: procedure as Example 1
Description: The study was carried out on 24 horses, the diagnosis of the navicular disease causing lameness being based on the following criteria: • local signs in the palmar region: heat, swelling, pain • functional signs of limping graded on a scale from 0 (no sign of limping) to 4 (trouble in bearing weight when at rest and/or in motion and difficulty in moving around) • a functional test of locomotion after flexing the palmar region, also assessed on a scale from 0 (locomotion not changed by flexure) to 4 (start of suppression of bearing weight) • a radiological examination to assess radiological signs in the palmar region qualitatively. All the animals received, as a single treatment, disodium tiludronate in the form of an injectable solution administered intravenously at a dose of 0.1 mg/kg, at a weekly administration rate for 6 to 10 weeks. The first day of treatment corresponds to D0. To assess the effects of the treatment, the animals were reviewed 1 month after D0 (M1), 2 months after D0 (M2) and 6 months after D0 (M6). The effects of the treatment were assessed with regard to: • the local signs, the functional signs and the test of locomotion after flexure as defined during inclusion of the animal into the test • a radiological examination to assess the change in the radiological signs • an assessment of the resumption of the animal's sporting activity. […] A clinical study was carried out to evaluate the effects of a treatment with disodium tiludronate on horses which develop lameness associated with bone lesions in the form of sub-chondral cysts during osteochondrosis. The test procedure and the clinical monitoring of the animals were the same as those described in Example 1, except that the local, functional and radiological signs were evaluated in the joints affected by osteochondrosis. 5 horses were included in this test. The results obtained were as follows (expressed as a percentage of animals present in each category): […]

[3] = system: lameness during enthesopathy of the insertion of the tendons and the ligaments; test: Clinical study in horses with lameness during enthesopathy of the insertion of the tendons and the ligaments; details: procedure as Example 1
Description: The study was carried out on 24 horses, the diagnosis of the navicular disease causing lameness being based on the following criteria: • local signs in the palmar region: heat, swelling, pain • functional signs of limping graded on a scale from 0 (no sign of limping) to 4 (trouble in bearing weight when at rest and/or in motion and difficulty in moving around) • a functional test of locomotion after flexing the palmar region, also assessed on a scale from 0 (locomotion not changed by flexure) to 4 (start of suppression of bearing weight) • a radiological examination to assess radiological signs in the palmar region qualitatively. All the animals received, as a single treatment, disodium tiludronate in the form of an injectable solution administered intravenously at a dose of 0.1 mg/kg, at a weekly administration rate for 6 to 10 weeks. The first day of treatment corresponds to D0. To assess the effects of the treatment, the animals were reviewed 1 month after D0 (M1), 2 months after D0 (M2) and 6 months after D0 (M6). The effects of the treatment were assessed with regard to: • the local signs, the functional signs and the test of locomotion after flexure as defined during inclusion of the animal into the test • a radiological examination to assess the change in the radiological signs • an assessment of the resumption of the animal's sporting activity. […] A clinical study was carried out to evaluate the effects of a treatment with disodium tiludronate on horses which develop lameness during enthesopathy of the insertion of the tendons and the ligaments. The test procedure and the clinical monitoring of the animals were the same as those described in Example 1, except that the local, functional and radiological signs were evaluated in the region of the tendon or ligament insertions at the source of lameness. 6 horses were included in this test. The results obtained were as follows (expressed as a percentage of animals present in each category): […]

[4] = system: lameness during navicular disease (podotrochlear syndrome); test: Clinical study in horses with lameness during navicular disease (podotrochlear syndrome); details: for percentage of animals in category Average / percentage of animals in category Favourable / percentage of animals in category Mediocre / percentage of animals in category Poor / percentage of animals in category Very favourable: 0.1 mg/kg i.v. weekly for 6 to 10 weeks
Description: A clinical study was carried out to evaluate the effects of a treatment with disodium tiludronate on horses which develop lameness during navicular disease (also known as podotrochlear syndrome). The study was carried out on 24 horses, the diagnosis of the navicular disease causing lameness being based on the following criteria: • local signs in the palmar region: heat, swelling, pain • functional signs of limping graded on a scale from 0 (no sign of limping) to 4 (trouble in bearing weight when at rest and/or in motion and difficulty in moving around) • a functional test of locomotion after flexing the palmar region, also assessed on a scale from 0 (locomotion not changed by flexure) to 4 (start of suppression of bearing weight) • a radiological examination to assess radiological signs in the palmar region qualitatively. To be included, the animal had to show no signs or lesions of septic arthritis, or any fractures of the bones in the palmar region. Also, it needed to have not received an injection for anti-inflammatory treatment in the joints of the palmar region. The wearing of an orthopaedic shoe was not contra-indicated since most of the animals had been […] for several weeks and were already wearing a shoe of this type. All the animals received, as a single treatment, disodium tiludronate in the form of an injectable solution administered intravenously at a dose of 0.1 mg/kg, at a weekly administration rate for 6 to 10 weeks. The first day of treatment corresponds to D0. To assess the effects of the treatment, the animals were reviewed 1 month after D0 (M1), 2 months after D0 (M2) and 6 months after D0 (M6). The effects of the treatment were assessed with regard to: • the local signs, the functional signs and the test of locomotion after flexure as defined during inclusion of the animal into the test • a radiological examination to assess the change in the radiological signs • an assessment of the resumption of the animal's sporting activity. […] The table below summarizes the effects of the treatment (expressed as a percentage of animals present in each category): […]

[5] = Examination at M1 (1 month after D0)
[6] = Examination at M2 (2 months after D0)
[7] = Examination at M6 (6 months after D0)

## O=P(O)(O)C(Sc1ccc(Cl)cc1)P(=O)(O)O [disodium tiludronate, 4-chlorophenylthiomethylenebisphosphonic acid]
[1]; [5]
  percentage of animals in category Average: 60%
  percentage of animals in category Favourable: 40%
  percentage of animals in category Mediocre: 0%
  percentage of animals in category Poor: 0%
  percentage of animals in category Very favourable: 0%
[1]; [6]
  percentage of animals in category Average: 0%
  percentage of animals in category Favourable: 60%
  percentage of animals in category Mediocre: 0%
  percentage of animals in category Poor: 0%
  percentage of animals in category Very favourable: 40%
[1]; [7]
  percentage of animals in category Average: 20%
  percentage of animals in category Favourable: 20%
  percentage of animals in category Mediocre: 0%
  percentage of animals in category Poor: 20%
  percentage of animals in category Very favourable: 40%
[1]; after treatment
  change in lameness induced by bone spavin after treatment: favourable to very favourable in most of the animals
[2]; [5]
  percentage of animals in category Average: 40%
  percentage of animals in category Favourable: 0%
  percentage of animals in category Mediocre: 0%
  percentage of animals in category Poor: 20%
  percentage of animals in category Very favourable: 40%
[2]; [6]
  percentage of animals in category Average: 20%
  percentage of animals in category Favourable: 40%
  percentage of animals in category Mediocre: 0%
  percentage of animals in category Poor: 20%
  percentage of animals in category Very favourable: 20%
[2]; [7]
  percentage of animals in category Average: 0%
  percentage of animals in category Favourable: 0%
  percentage of animals in category Mediocre: 40%
  percentage of animals in category Poor: 0%
  percentage of animals in category Very favourable: 60%
[3]; [5]
  percentage of animals in category Average: 33%
  percentage of animals in category Favourable: 50%
  percentage of animals in category Mediocre: 17%
  percentage of animals in category Poor: 0%
  percentage of animals in category Very favourable: 0%
[3]; [6]
  percentage of animals in category Average: 33%
  percentage of animals in category Favourable: 67%
  percentage of animals in category Mediocre: 0%
  percentage of animals in category Poor: 0%
  percentage of animals in category Very favourable: 0%
[3]; [7]
  percentage of animals in category Average: 0%
  percentage of animals in category Favourable: 40%
  percentage of animals in category Mediocre: 20%
  percentage of animals in category Poor: 0%
  percentage of animals in category Very favourable: 40%
[4]; [5]
  percentage of animals in category Average: 38%
  percentage of animals in category Favourable: 46%
  percentage of animals in category Mediocre: 4%
  percentage of animals in category Poor: 4%
  percentage of animals in category Very favourable: 8%
[4]; [6]
  percentage of animals in category Average: 26%
  percentage of animals in category Favourable: 43%
  percentage of animals in category Mediocre: 5%
  percentage of animals in category Poor: 0%
  percentage of animals in category Very favourable: 26%
[4]; [7]
  percentage of animals in category Average: 27%
  percentage of animals in category Favourable: 46%
  percentage of animals in category Mediocre: 9%
  percentage of animals in category Poor: 0%
  percentage of animals in category Very favourable: 18%
[4]; after administration of the treatment is started
  time at which the benefit of the treatment is optimal: 2 months
[4]; at the end of administration of the treatment
  share of animals with complete recovery: a quarter of the animals
[4]; pathological radiological signs
  radiological examination of the palmar region: did not reveal any change in kinetics of the pathological radiological signs
